Assay results: patent US8956999B2, “Herbicides” (Syngenta Limited, priority 2007, dated 2015)

What was measured:
Type in all cases: in vivo
Setaria faberi (SETFA) [1] = assay: Example B post-emergence herbicidal test, glasshouse; conditions: 312 h, rate 250 g/ha, evaluated after 13 days, read-out: Post-Emergence Activity SEFTA (100=total damage to plant; 0=no damage to plant)
Protocol: (§1) Seeds of a variety of test species were sown in standard soil in pots. After cultivation for one day (pre-emergence) or after 8 days cultivation (post-emergence) under controlled conditions in a glasshouse (at 24/16° C., day/night; 14 hours light; 65% humidity), the plants were sprayed with an aqueous spray solution derived from the formulation of the technical active ingredient in acetone/water (50:50) solution containing 0.5% Tween 20 (polyoxyethelyene sorbitan monolaurate, CAS RN 9005-64-5). The test plants were then grown in a glasshouse under controlled conditions in a glasshouse (at 24/16° C., day/night; 14 hours light; 65% humidity) and watered twice daily. After 13 days for pre and post-emergence, the test was evaluated (100=total damage to plant; 0=no damage to plant). Test Plants: Alopecurus myosuroides (ALOMY), Avena fatua (AVEFA), Setaria faberi (SETFA), Echinochloa crus-galli (ECHCG), Solanum nigrum (SOLNI) and Amaranthus retoflexus (AMARE)

[2] = system: Amaranthus retoflexus (AMARE); assay: as above; conditions: Amaranthus retroflexus, 312 h, rate 250 g/ha, evaluated after 13 days, read-out: Post-Emergence Activity AMARE (100=total damage to plant; 0=no damage to plant)
Protocol: as §1

Avena fatua (AVEFA) [3] = assay: as above; conditions: 312 h, rate 250 g/ha, evaluated after 13 days, read-out: Post-Emergence Activity AVEFA (100=total damage to plant; 0=no damage to plant)
Protocol: as §1

[4] = system: Echinochloa crus-galli (ECHCG); assay: as above; conditions: 312 h, rate 250 g/ha, evaluated after 13 days, read-out: Post-Emergence Activity ECHGG (100=total damage to plant; 0=no damage to plant)
Protocol: as §1

[5] = system: Alopecurus myosuroides (ALOMY); assay: as above; conditions: 312 h, rate 250 g/ha, evaluated after 13 days, read-out: Post-Emergence Activity ALOMY (100=total damage to plant; 0=no damage to plant)
Protocol: as §1

Setaria faberi (SETFA) [6] = assay: Example B pre-emergence herbicidal test, glasshouse; conditions: Setaria faberi, 312 h, rate 250 g/ha, evaluated after 13 days, 100=total damage to plant, 0=no damage to plant, read-out: Pre-Emergence Activity SEFTA
Protocol: as §1

[7] = system: Amaranthus retoflexus (AMARE); assay: as above; conditions: Amaranthus retroflexus, 312 h, rate 250 g/ha, evaluated after 13 days, 100=total damage to plant, 0=no damage to plant
Protocol: as §1

Avena fatua (AVEFA) [8] = assay: as above; conditions: 312 h, rate 250 g/ha, evaluated after 13 days, 100=total damage to plant, 0=no damage to plant
Protocol: as §1

[9] = system: Echinochloa crus-galli (ECHCG); assay: as above; conditions: Echinochloa crus-galli, 312 h, rate 250 g/ha, evaluated after 13 days, 100=total damage to plant, 0=no damage to plant, read-out: Pre-Emergence Activity ECHGG
Protocol: as §1

[10] = system: Alopecurus myosuroides (ALOMY); assay: as above; conditions: 312 h, rate 250 g/ha, evaluated after 13 days, 100=total damage to plant, 0=no damage to plant
Protocol: as §1

SMILES | pest or weed control at 250 g/ha (Setaria faberi (SETFA) [1]) | pest or weed control at 250 g/ha [2] | pest or weed control at 250 g/ha (Avena fatua (AVEFA) [3]) | pest or weed control at 250 g/ha [4] | pest or weed control at 250 g/ha [5] | pest or weed control at 250 g/ha (Setaria faberi (SETFA) [6]) | pest or weed control at 250 g/ha [7] | pest or weed control at 250 g/ha (Avena fatua (AVEFA) [8]) | pest or weed control at 250 g/ha [9] | pest or weed control at 250 g/ha [10]
Cc1sc(-c2ccc(F)cc2)cc1C1C(=O)C(C)(C)C(=O)C(C)(C)C1=O [Compound T25] | 20% | 0% | 0% | 20% | 0% | – | – | – | – | –
Cc1sc(-c2ccc(C(F)(F)F)cc2)cc1C1C(=O)C(C)(C)C(=O)C(C)(C)C1=O [Compound T27] | 50% | 30% | 0% | 30% | 20% | – | – | – | – | –
Cc1cc(-c2nc(C3C(=O)C(C)(C)C(=O)C(C)(C)C3=O)c(C)s2)ccc1Cl [Compound T42] | 0% | 0% | 0% | 20% | 0% | 0% | 40% | 0% | 40% | 0%
Cc1sc(-c2ccc(Cl)c(Cl)c2)nc1C1C(=O)C(C)(C)C(=O)C(C)(C)C1=O [Compound T43] | 0% | 0% | 0% | 30% | 0% | 0% | 0% | 0% | 0% | 0%
Cc1cc(Cl)ccc1-c1nc(C2C(=O)C(C)(C)C(=O)C(C)(C)C2=O)c(C)s1 [Compound T44] | – | – | – | – | – | 0% | 0% | 0% | 30% | 0%
Cc1sc(-c2ccc(Cl)cc2Cl)nc1C1C(=O)C(C)(C)C(=O)C(C)(C)C1=O [Compound T45] | 70% | 0% | 0% | 70% | 30% | – | – | – | – | –
CCc1sc(-c2ccc(Cl)cc2F)nc1C1C(=O)C(C)(C)OC(C)(C)C1=O [Compound T47] | 100% | 0% | 100% | 100% | 100% | 90% | 20% | 90% | 70% | 70%
CCc1sc(-c2cc(F)c(Cl)cc2Cl)nc1C1C(=O)C(C)(C)OC(C)(C)C1=O [Compound T65] | 100% | 0% | 70% | 100% | 90% | – | – | – | – | –
Cc1nc(-c2ccc(Cl)cc2)sc1C1C(=O)C(C)(C)OC(C)(C)C1=O [Compound T66] | 80% | 0% | 40% | 90% | 70% | – | – | – | – | –
CSc1ccc(-c2nc(C3C(=O)C(C)(C)OC(C)(C)C3=O)c(C)s2)cc1 [Compound T67] | 70% | 0% | 0% | 90% | 0% | – | – | – | – | –
